Assay results published in PubChem BioAssay (NCI).
Where “and” joins values, the source holds several entries; their conditions need not be identical. Identical values can stand only once.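 Growth conditions: 96-well plates. Treatment: test compound, 48 hours, 5 concentrations. Analysis: linear interpolation between bracketing concentrations; unreached endpoints set to highest concentration. Abbreviation: GI50, concentration required for 50% inhibition of growth. TGI: concentration producing complete growth inhibition.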

Columns and labels:
Test in all cases: NCI tumour cell line growth inhibition, 48 h
[1] = test system: SN12C renal
[2] = test system: A549 NSCLC
[3] = test system: A498 renal
[4] = test system: HCC-2998 colon
[5] = test system: OVCAR-8 ovarian
[6] = test system: CCRF-CEM leukemia
[7] = test system: PC-3 prostate
[8] = test system: LOX IMVI melanoma
[9] = test system: NCI-H226 lung
[10] = test system: HL-60(TB) leukemia
[11] = test system: U251 CNS
[12] = test system: MALME-3M melanoma
[13] = test system: SNB-19 CNS
[14] = test system: IGROV1 ovarian
[15] = test system: KM12 colon
[16] = test system: HOP-92 NSCLC
[17] = test system: ACHN renal
[18] = test system: M14 melanoma
[19] = test system: MCF7 breast
[20] = test system: CAKI-1 renal
[21] = test system: HCT-15 colon
[22] = test system: MDA-MB-435
[23] = test system: MDA-MB-231 breast
[24] = test system: SK-MEL-28 melanoma
[25] = test system: SK-MEL-2 melanoma
[26] = test system: EKVX NSCLC
[27] = test system: UACC-257 melanoma
[28] = test system: SF-539 CNS
[29] = test system: UO-31 renal
[30] = test system: HOP-62 NSCLC
[31] = test system: SF-295 CNS
[32] = test system: SK-OV-3 ovarian
[33] = test system: TK-10 renal
[34] = test system: RXF 393 renal
[35] = test system: HS 578T breast
[36] = test system: OVCAR-4 ovarian
[37] = test system: MOLT-4 leukemia
[38] = test system: 786-0 renal
[39] = test system: UACC-62 melanoma
[40] = test system: SW-620 colon
[41] = test system: SK-MEL-5 melanoma
[42] = test system: HCT-116 colon
[43] = test system: NCI-H522 lung
[44] = test system: SF-268 CNS
[45] = test system: NCI-H23 lung
[46] = test system: OVCAR-3 ovarian
[47] = test system: HT29 colon
[48] = test system: OVCAR-5 ovarian
[49] = test system: K-562 leukemia
[50] = test system: RPMI-8226 leukemia
[51] = test system: DU-145 prostate
[52] = test system: SR leukemia
[53] = test system: NCI-H460 lung
[54] = test system: NCI/ADR-RES ovarian
[55] = test system: COLO 205 colon
[56] = test system: BT-549 breast
[57] = test system: T-47D breast

COc1ccc(-c2cc(=O)oc3ccc(Cl)cc23)cc1F
TGI [1]: > 100 µM
GI50 [2]: 268 nM and 105 nM
TGI [2]: > 100 µM
GI50 [3]: 103 nM and 47.1 nM
TGI [3]: 790 nM and 5170 nM
GI50 [4]: 590 nM and 243 nM
TGI [4]: 30.2 µM
GI50 [5]: 490 nM and 327 nM
TGI [5]: > 100 µM
GI50 [6]: 222 nM and 59.9 nM
TGI [6]: > 100000 nM
GI50 [7]: 274 nM and 79.7 nM
TGI [7]: > 100 µM
GI50 [8]: 186 nM and 69.5 nM
TGI [8]: > 100 µM
GI50 [9]: 705 nM and 3940 nM
TGI [9]: > 100000 nM
GI50 [10]: 129 nM and 33.9 nM
TGI [10]: 908 nM and 480 nM
GI50 [11]: 331 nM and 51.9 nM
TGI [11]: 12.6 µM
GI50 [12]: 59.2 µM
TGI [12]: > 100 µM
GI50 [13]: 350 nM and 74.4 nM
TGI [13]: > 100 µM
GI50 [14]: 1160 nM and 683 nM
TGI [14]: > 100000 nM
GI50 [15]: 71.2 nM and 52.4 nM
TGI [15]: 11 µM
TGI [16]: 7.94 µM
TGI [17]: > 100 µM
GI50 [18]: 51.9 nM and 42.3 nM
TGI [18]: > 100 µM
GI50 [19]: 78.5 nM and 46.8 nM
TGI [19]: 18.6 µM
TGI [20]: > 100 µM
GI50 [21]: 53.7 nM and 46.3 nM
TGI [21]: 10.4 µM
GI50 [22]: 23.3 nM and 20 nM
TGI [22]: 67.5 nM and 53.1 nM
TGI [23]: > 100 µM
GI50 [24]: 1710 nM and 3050 nM
TGI [24]: > 100 µM
GI50 [25]: 212 nM and 38.5 nM
TGI [25]: 2680 nM
GI50 [26]: 509 nM and 362 nM
TGI [26]: > 100 µM
GI50 [27]: 23.2 µM
TGI [27]: > 100000 nM
GI50 [28]: 126 nM and 47.5 nM
TGI [28]: 733 nM and 479 nM
GI50 [29]: 755 nM and 1200 nM
TGI [29]: > 100 µM
GI50 [30]: 208 nM and 188 nM
TGI [30]: 27.3 µM
GI50 [31]: 84.5 nM and 36.7 nM
TGI [31]: 14.2 µM
GI50 [32]: 384 nM and 209 nM
TGI [32]: > 100 µM
GI50 [33]: 435 nM
TGI [33]: 79.6 µM
GI50 [34]: 141 nM and 233 nM
GI50 [35]: 181 nM and 75.4 nM
TGI [35]: 68.9 µM
GI50 [36]: 1030 nM and 5590 nM
TGI [36]: > 100000 nM
GI50 [37]: 310 nM and 57.1 nM
TGI [37]: > 100000 nM
GI50 [38]: 366 nM and 87.7 nM
TGI [38]: > 100 µM
GI50 [39]: 37.7 nM and 40.6 nM
TGI [39]: > 100 µM
GI50 [40]: 53 nM and 43.1 nM
TGI [40]: > 100 µM
GI50 [41]: 140 nM and 71.7 nM
TGI [41]: 835 nM and 2350 nM
GI50 [42]: 91.3 nM and 44.7 nM
TGI [42]: 3.63 µM and 10.7 µM
GI50 [43]: 34.9 nM and 21.8 nM
GI50 [44]: 616 nM and 302 nM
TGI [44]: > 100 µM
GI50 [45]: 302 nM and 413 nM
TGI [45]: 96 µM
GI50 [46]: 50.2 nM and 37.9 nM
TGI [46]: 497 nM and 345 nM
GI50 [47]: 53.8 nM and 39.7 nM
TGI [47]: 336 nM
GI50 [48]: 633 nM and 1260 nM
TGI [48]: > 100 µM
GI50 [49]: 43.5 nM and 40.1 nM
GI50 [50]: 297 nM and 106 nM
TGI [50]: > 100 µM
GI50 [51]: 255 nM and 261 nM
TGI [51]: 4.16 µM and 27.3 µM
GI50 [52]: 42.6 nM
GI50 [53]: 167 nM and 49.9 nM
TGI [53]: 21.8 µM
GI50 [54]: 44.2 nM and 47.8 nM
GI50 [55]: 146 nM and 85.3 nM
TGI [55]: 1090 nM and 896 nM
GI50 [56]: 303 nM and 66.5 nM
TGI [56]: 6.62 µM

CCOC(=O)/C=C(/N=P(c1ccccc1)(c1ccccc1)c1ccccc1)C(F)(F)F
TGI [4]: > 100 µM
TGI [29]: > 100 µM
TGI [32]: > 100 µM
TGI [57]: > 100000 nM
TGI [43]: > 100000 nM

COc1ccc2c(NCCCCCCCCNc3c4ccccc4nc4cc(OC)ccc34)c3ccccc3nc2c1
GI50 [3]: 129 nM
TGI [3]: 437 nM
GI50 [4]: 71.8 nM
TGI [4]: 0.254 µM
GI50 [6]: 25.3 nM
TGI [6]: 431 nM
GI50 [9]: 128 nM
TGI [9]: 961 nM
GI50 [10]: 363 nM
TGI [10]: 2130 nM
TGI [14]: 108 nM
GI50 [16]: 1240 nM
TGI [16]: 2.58 µM
GI50 [19]: 27.9 nM
TGI [19]: 0.192 µM
GI50 [25]: 162 nM
TGI [25]: 358 nM
GI50 [27]: 0.221 µM
TGI [27]: 1070 nM
GI50 [29]: 48.8 nM
TGI [29]: 0.223 µM
GI50 [30]: 65.8 nM
TGI [30]: 0.318 µM
GI50 [33]: 126 nM
TGI [33]: 0.763 µM
GI50 [34]: 117 nM
TGI [34]: 332 nM
GI50 [36]: 93.8 nM
TGI [36]: 446 nM
GI50 [37]: 54.6 nM
TGI [37]: 2320 nM
GI50 [57]: 50.8 nM
TGI [57]: 295 nM
GI50 [43]: 11 nM
TGI [43]: 187 nM
GI50 [49]: 52.9 nM
TGI [49]: 300 nM
GI50 [51]: 49.8 nM
TGI [51]: 0.339 µM
